In PubChem BioAssay (NCI):
Several values for one entry are separate records, joined by “and”; a condition that tells them apart may be missing. Equal entries are not always repeated.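 Step 1: Grow cells in 96-well plates. Step 2: Expose to compound for 48 hours at 5 concentrations. Step 3: Interpolate endpoints linearly; if unreached, use highest concentration. GI50 marks 50% less growth. TGI denotes the concentration required for complete inhibition of growth.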

Tests used:
Assay in all cases: NCI-60 cell line screen, 48 h
[1] = tested on: NCI/ADR-RES ovarian
[2] = tested on: PC-3 prostate
[3] = tested on: BT-549 breast
[4] = tested on: MCF7 breast
[5] = tested on: T-47D breast
[6] = tested on: TK-10 renal

With COc1ncc(-c2ccc3ncnc(Nc4cccc(Cl)c4)c3c2)cc1NS(=O)(=O)C1CC1 as the molecule, how does the GI50 [1] read?
Its GI50 is 1.17 µM.

What about the TGI [1] of the same molecule?
The TGI was over 100 µM.

And the GI50 [2]?
Its GI50 is over 100 µM.

What about the TGI [2] of the same molecule?
Its TGI is over 100 µM.

What does the source list for CCOC(=O)c1c(NC(=O)c2cccc(C(F)(F)F)c2)sc2c(CN(C)C)c(O)ccc12?
GI50 [3]: 12.2 µM; TGI [3]: 26.9 µM; GI50 [4]: 2.81 µM; TGI [4]: 12.1 µM; GI50 [1]: 8.82 µM; TGI [1]: 21 µM; GI50 [2]: 5.45 µM; TGI [2]: 18.1 µM; GI50 [5]: 3.74 µM; TGI [5]: 21.4 µM; GI50 [6]: 4.25 µM; TGI [6]: 15.8 µM

With C#COc1cccc(Nc2c(C#N)cnc3ncc(NC(=O)CCl)cc23)c1 as the molecule, how does the GI50 [3] read?
Its GI50 is over 62.5 µM.

And the TGI [3]?
The TGI was over 62.5 µM.

What about the GI50 [4] of the same molecule?
The GI50 was 12.8 µM.

What about the TGI [4] of the same molecule?
The TGI was over 62.5 µM.

And the GI50 [1]?
The GI50 was over 62.5 µM.

What about the TGI [1] of the same molecule?
The TGI was over 62.5 µM.

And the GI50 [2]?
Its GI50 is 32.5 µM.

What about the TGI [2] of the same molecule?
Its TGI is over 62.5 µM.

And the GI50 [5]?
Its GI50 is 23.3 µM.

And the TGI [5]?
The TGI was over 62.5 µM.

What about the GI50 [6] of the same molecule?
Its GI50 is over 62.5 µM.

And the TGI [6]?
The TGI was over 62.5 µM.

Which results are given for COc1ccc(-n2c(C)cc(-c3ccccc3)c2C)cc1?
GI50 [3]: 2.63 µM; TGI [3]: 9.98 µM; GI50 [4]: 3.58 µM; TGI [4]: > 100 µM; GI50 [1]: 3.33 µM; TGI [1]: 21.5 µM; GI50 [2]: 2.22 µM; TGI [2]: > 100 µM; GI50 [5]: 1.65 µM; TGI [5]: 67.2 µM; GI50 [6]: 3.28 µM; TGI [6]: 16.5 µM

How did the GI50 [3] turn out when COc1cc(OC)c(/C=C/c2c3ccccc3cc[n+]2C)c(OC)c1 was run?
Its GI50 is 1.58 µM.

And the TGI [3]?
Its TGI is 21.8 µM.

What about the GI50 [4] of the same molecule?
The GI50 was 1.02 µM.

What about the TGI [4] of the same molecule?
The TGI was 18.2 µM.

And the GI50 [1]?
Its GI50 is over 85.5 µM.

What about the TGI [1] of the same molecule?
Its TGI is over 100 µM.

And the GI50 [2]?
The GI50 was 0.943 µM.

And the TGI [2]?
The TGI was over 37.9 µM.

What about the GI50 [5] of the same molecule?
Its GI50 is 0.541 µM.

What about the TGI [5] of the same molecule?
The TGI was over 26.2 µM.

And the GI50 [6]?
Its GI50 is 3.27 µM.

What about the TGI [6] of the same molecule?
Its TGI is 23.1 µM.

Which results are given for CN1C(=O)/C(=C/c2c(Cl)n(C)c3ccccc23)c2ccccc21?
GI50 [3]: 3.31 µM; TGI [3]: 9.25 µM; GI50 [4]: 3.02 µM and 2.15 µM; TGI [4]: > 100 µM; GI50 [1]: 1.92 µM; TGI [1]: 5.17 µM; GI50 [2]: 2.67 µM; TGI [5]: 0.825 µM; GI50 [6]: 9.52 µM and 1.38 µM; TGI [6]: 2.67 µM

What does the source list for C1=C\COCc2cc(ccc2OCCN2CCCC2)Nc2nccc(n2)-c2cccc(c2)COC/1?
GI50 [3]: 4.67 µM; TGI [3]: 6.66 µM; GI50 [4]: 0.772 µM; TGI [4]: 3.37 µM; GI50 [1]: 2.77 µM; TGI [1]: 7.35 µM; GI50 [2]: 1.61 µM; TGI [2]: 5.43 µM; GI50 [5]: 1.37 µM; TGI [5]: 5.12 µM; GI50 [6]: 3.33 µM; TGI [6]: 5.79 µM

What does the source list for COc1cc2c3c(n(CCCOC(=O)C(F)(F)F)c(=O)c2cc1OC)-c1cc2c(cc1C3=O)OCO2?
GI50 [3]: 0.202 µM; TGI [3]: 68.6 µM; TGI [4]: > 29.2 µM; GI50 [1]: < 0.0289 µM; TGI [1]: 0.137 µM; GI50 [2]: 0.0532 µM; TGI [2]: > 100 µM; TGI [5]: > 28.2 µM; GI50 [6]: 0.135 µM; TGI [6]: > 100 µM

Which results are given for CN(CCO)c1ccc(N2Cc3ccccc3OC3=C2C(=O)c2c(O)ccc(O)c2C3=O)cn1?
GI50 [3]: 0.177 µM; TGI [3]: 0.386 µM; GI50 [4]: 0.0638 µM; TGI [4]: 0.31 µM; GI50 [1]: 0.31 µM; TGI [1]: 1.34 µM; GI50 [2]: 0.296 µM; TGI [2]: 0.888 µM; GI50 [5]: 0.176 µM; TGI [5]: 0.577 µM; GI50 [6]: 0.248 µM; TGI [6]: 0.632 µM

Which results are given for OCc1ccn2c1[C@@H](O)CC2?
TGI [3]: > 100 µM; TGI [4]: > 100 µM; TGI [1]: > 100 µM; TGI [2]: > 100 µM; TGI [5]: > 100 µM; TGI [6]: > 100 µM

Which results are given for C=C1C(=O)O[C@H]2[C@H]1CC/C(COC(=O)/C=C\C(=O)NCc1ccc(Cn3c(=O)sn(CCCC)c3=O)cc1)=C\CC[C@@]1(C)O[C@@H]21?
GI50 [3]: 0.909 µM; TGI [3]: 2.23 µM; GI50 [4]: 0.365 µM; TGI [4]: 2.03 µM; GI50 [1]: 1.51 µM; TGI [1]: 6.13 µM; GI50 [2]: 0.868 µM; TGI [2]: 2.34 µM; GI50 [5]: 1.27 µM; TGI [5]: 4.22 µM; GI50 [6]: 0.61 µM; TGI [6]: 1.78 µM

For CC(=O)Oc1ccccc1C(=O)Nc1ncc([N+](=O)[O-])s1, which GI50 [3] is on record?
The GI50 was 1.97 µM.

What about the GI50 [4] of the same molecule?
The GI50 was 2.26 µM.

And the TGI [4]?
The TGI was 10.3 µM and > 100 µM.

What about the GI50 [1] of the same molecule?
Its GI50 is 2.29 µM.

And the TGI [1]?
The TGI was over 85.2 µM.

And the GI50 [2]?
Its GI50 is 1.66 µM.

And the TGI [2]?
Its TGI is 6.42 µM and > 51.6 µM.

And the GI50 [5]?
Its GI50 is 2.88 µM.

What about the TGI [5] of the same molecule?
The TGI was > 26.6 µM and 60.3 µM.

What about the GI50 [6] of the same molecule?
The GI50 was 3.75 µM.

And the TGI [6]?
The TGI was 10.3 µM and > 100 µM.

With CCOc1ccncc1[N+](=O)[O-] as the molecule, how does the TGI [3] read?
Its TGI is over 100 µM.

And the TGI [4]?
Its TGI is over 100 µM.

And the TGI [1]?
Its TGI is over 100 µM.

And the TGI [2]?
The TGI was over 100 µM.

What about the TGI [5] of the same molecule?
Its TGI is over 100 µM.

And the TGI [6]?
Its TGI is over 100 µM.

COC(=O)[C@@H](C)C[C@H](Cc1ccccc1)NC(=O)c1csc([C@@H](C[C@H](C(C)C)N(C)C(=O)[C@@H](NC(=O)[C@H]2CCCCN2C)C2CCCCC2)OC(C)=O)n1 was tested. Which GI50 [3] did it give?
Its GI50 is 0.000701 µM and 0.0025 µM.

What about the TGI [4] of the same molecule?
Its TGI is over 25 µM.

What about the GI50 [1] of the same molecule?
Its GI50 is 0.0215 µM and 0.0481 µM.

And the TGI [1]?
Its TGI is over 25 µM.

What about the GI50 [2] of the same molecule?
The GI50 was 0.000435 µM and 0.0025 µM.

And the TGI [2]?
Its TGI is 20.9 µM.

What about the GI50 [6] of the same molecule?
Its GI50 is 0.0181 µM and 0.0025 µM.

And the TGI [6]?
Its TGI is over 25 µM.

What does the source list for c1ccc2nc3c(nc2c1)sc1ccccc13?
TGI [3]: > 100 µM; TGI [4]: > 100 µM; TGI [1]: > 100 µM; TGI [5]: > 100 µM; TGI [6]: 39.3 µM

With COc1ccc(-c2ccc(-c3ccc(C(=N)N)s3)s2)cc1 as the molecule, how does the GI50 [1] read?
The GI50 was 0.416 µM.

What about the TGI [1] of the same molecule?
Its TGI is 1.6 µM.

What about the GI50 [2] of the same molecule?
Its GI50 is 0.167 µM.

What about the TGI [2] of the same molecule?
The TGI was 0.318 µM.

What about the GI50 [5] of the same molecule?
Its GI50 is 0.243 µM.

And the TGI [5]?
The TGI was 0.596 µM.

What about the GI50 [6] of the same molecule?
The GI50 was 0.175 µM.

And the TGI [6]?
Its TGI is 0.337 µM.
